In patent publication US20120093917A1, “METNASE AND INTNASE INHIBITORS AND THEIR USE IN TREATING CANCER” (priority 2009, published 2012):

How the values were obtained:
[1] = test system: human Pancreatic cancer cell line BXPC3; test: Colony formation assay, pancreatic cancer cell line BXPC3; format: cell-based; conditions: BXPC3, FIG. 16
Procedure: The human Pancreatic cancer cell line BXPC3 was plated (4000 cells per plate with a ˜10% plating efficiency) in 10 cm dishes, using 10 ml of RPMI media (always with 10% FBS) per plate, and placed in a […] incubator (5% CO2) for 24 hrs. After 24 hrs, each plate was treated with one or a combination of the following agents: DMSO (0.2% in solution), 0.3 μg/ml of gemcitabine (dissolved in 1×PBS), and/or 2 μM of each Metnase/Intnase inhibitor (dissolved in DMSO). When the DMSO, gemcitabine, and/or inhibitors were added, the plates were swirled several times to assure mixing. After the agents were added to the RPMI, the plates were put back into the incubators for 18 hrs. Following 18 hrs treatment, the media was removed and the cells were washed twice with 1×PBS. Ten ml of fresh RPMI with 10% FBS was added and the cells were placed back into the incubator for 14 days. After the incubation period that will allow surviving cells to form colonies, the media was discarded and surviving colonies were stained with methylene blue. Colonies, a reflection of a single surviving cell that expanded, were counted to measure survival. All experiments were run in triplicate. Experiments were normalized to either DMSO (black asterices) or gemcitabine (red asterices).

[2] = test system: human colon cancer cell line SW48; test: Colony formation assay, colon cancer cell line SW48; format: cell-based; conditions: 2 μM inhibitor, 18 hr treatment, colonies after 7-14 days, normalized to DMSO, FIG. 17
Procedure: The human colon cancer cell line SW48 was plated (1000 cells per plate with a ˜20% plating efficiency) in 10 cm dishes, using 10 ml of DMEM media (always with 10% FBS) per plate, and placed in a […] incubator (5% CO2) for 24 hrs. After 24 hr, each plate was treated with one or a combination of the following agents: DMSO (0.2% in solution), 3 μM 5-fluorouracil (5FU, dissolved in 1×PBS), and/or 2 μM of each Metnase/intnase inhibitor (dissolved in DMSO). When the DMSO, 5FU, and/or inhibitors were added, the plates were swirled several times to assure mixing. After agents were added to the DMEM, the plates were put back into the incubators for 18 hr. Following 18 hr treatment, the media was removed and the cells were washed twice with 1×PBS. Ten milliliters of fresh DMEM was added and the cells were placed back into the incubator for 7-14 days. After the incubation period that will allow surviving cells to grow and form colonies, media was discarded and surviving colonies were stained with methylene blue. Colonies, a reflection of a single surviving cell that expanded, were counted to measure survival. All experiments were run in triplicate. Experiments were normalized to either DMSO (black asterices) or 5FU (red asterices).

[3] = test system: human myeloid cell line KG-1; test: Leukemia cell line KG-1 growth curve, alone or with VP-16; format: cell-based; conditions: counted daily for 4 days
Procedure: The human myeloid cell line KG-1 was grown in RPMI1640 with 10% FBS. The small cell lung cancer cell line CRL5898 was grown in HITES medium (Dulbecco's medium: Ham's F12, 50:50 mix, Insulin 0.005 mg/ml Transferrin 0.01 mg/ml Sodium selenite 30 nM Hydrocortisone 10 nM beta-estradiol 10 nM HEPES 10 mM L-glutamine 2 mM (in addition to that in the base medium)). Both cell lines were seeded at 10,000 cells/ml in the appropriate medium in 6 well plates. The Chem Div compounds were resuspended as 5 mM stock solutions in DMSO. The Chem Div compounds were added alone at 2 uM and 5 uM or in combination with VP-16 (also called etoposide) at 0.05 uM. DMSO was added to the control wells. Cells were plated and treated in triplicate and counted daily for 4 days.

human DNA polymerases = conditions: cited from earlier work
[4] = molecular target: 166 enzymes, transporters and receptors; conditions: read-out: IC50 in screening panel, all assays; cited from earlier work
ABCB1 (MDR-1; P-gp) = ABCB1 (MDR-1; P-gp) (Homo sapiens, UniProt P08183); conditions: not told; cited from earlier work
cytochrome P450 enzymes = conditions: cited from earlier work
[5] = in vivo; cited from earlier work

Chain of ABCB1 (MDR-1; P-gp) (P08183 whole entry, species assumed): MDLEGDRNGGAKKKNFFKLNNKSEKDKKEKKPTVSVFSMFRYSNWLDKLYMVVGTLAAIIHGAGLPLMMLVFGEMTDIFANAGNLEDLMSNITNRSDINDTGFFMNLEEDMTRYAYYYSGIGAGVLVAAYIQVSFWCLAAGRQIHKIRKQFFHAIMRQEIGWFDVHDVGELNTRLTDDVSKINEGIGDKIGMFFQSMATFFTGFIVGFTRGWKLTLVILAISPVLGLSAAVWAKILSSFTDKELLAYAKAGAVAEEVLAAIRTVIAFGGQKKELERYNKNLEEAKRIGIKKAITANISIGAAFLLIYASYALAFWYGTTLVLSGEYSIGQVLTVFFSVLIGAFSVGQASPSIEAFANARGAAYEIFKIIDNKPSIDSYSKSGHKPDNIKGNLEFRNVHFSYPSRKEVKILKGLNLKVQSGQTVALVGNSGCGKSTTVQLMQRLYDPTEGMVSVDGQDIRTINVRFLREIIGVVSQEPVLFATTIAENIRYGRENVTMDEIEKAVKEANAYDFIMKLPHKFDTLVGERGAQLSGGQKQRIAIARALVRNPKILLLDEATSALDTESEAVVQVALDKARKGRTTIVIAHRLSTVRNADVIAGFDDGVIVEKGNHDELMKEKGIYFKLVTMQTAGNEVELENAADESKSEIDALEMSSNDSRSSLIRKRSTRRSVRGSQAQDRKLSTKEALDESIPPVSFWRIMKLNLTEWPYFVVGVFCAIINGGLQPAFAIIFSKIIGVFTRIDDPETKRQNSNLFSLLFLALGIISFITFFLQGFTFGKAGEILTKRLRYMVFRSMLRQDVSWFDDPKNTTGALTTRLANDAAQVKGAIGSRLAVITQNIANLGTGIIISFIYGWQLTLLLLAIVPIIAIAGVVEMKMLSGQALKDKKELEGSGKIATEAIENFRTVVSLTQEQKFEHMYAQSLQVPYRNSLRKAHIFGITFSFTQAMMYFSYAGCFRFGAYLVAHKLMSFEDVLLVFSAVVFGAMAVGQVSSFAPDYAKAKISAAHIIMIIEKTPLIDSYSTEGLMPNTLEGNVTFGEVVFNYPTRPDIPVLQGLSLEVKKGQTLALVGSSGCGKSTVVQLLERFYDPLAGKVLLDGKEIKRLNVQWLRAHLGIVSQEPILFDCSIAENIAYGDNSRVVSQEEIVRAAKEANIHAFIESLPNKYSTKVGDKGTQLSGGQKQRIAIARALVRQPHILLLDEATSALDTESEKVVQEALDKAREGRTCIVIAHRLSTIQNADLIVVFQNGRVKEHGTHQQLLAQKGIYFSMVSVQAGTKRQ

SMILES: Cc1nnc(C(=O)NC(C)(C)C2=N/C(=C(\O)NCc3ccc(F)cc3)C(=O)C(=O)N2C)o1 [Raltegravir, N-[2-[(4Z)-4-[[(4-fluorophenyl)methylamino]-hydroxymethylidene]-1-methyl-5,6-dioxopyrimidin-2-yl]propan-2-yl]-5-methyl-1,3,4-oxadiazole-2-carboxamide]
- potentiation of gemcitabine (surviving colonies) ([1]; 2 μM inhibitor + 0.3 μg/ml gemcitabine, 18 hrs, normalized to gemcitabine): potentiate gemcitabine
- activity on their own against the pancreatic cancer cells (surviving colonies) ([1]; 2 μM inhibitor, 18 hrs treatment, colonies after 14 days, normalized to DMSO): activity on their own
- activity on their own against the colon cancer cells (surviving colonies) [2]: activity on their own
- effect of compound alone on KG-1 growth, lower/low dose ([3]; lower (low) dose of compound (added at 2 uM and 5 uM)): little effect on leukemia cell growth
- potentiation of low dose VP-16 on KG-1 growth, lower/low dose of compound ([3]; lower (low) dose of compound + VP-16 0.05 uM): potentiated the anti-proliferative effect of low dose VP-16
- inhibition of human DNA polymerases (human DNA polymerases): does not inhibit
- IC50 [4]: > 10 µM
- inhibitor of ABCB1 (MDR-1; P-gp) (ABCB1 (MDR-1; P-gp)): not an inhibitor
- substrate, inducer or inhibitor of cytochrome P450 enzymes (cytochrome P450 enzymes): not a substrate, nor an inducer or inhibitor
- Serum half-life [5]: 9 h
